In publication PMC10447463, “Data-mining unveils structure–property–activity correlation of viral infectivity enhancing self-assembling peptides” (Nature Communications, 2023):

Experiments:
[1] = Turbidity, derived count rate of scattered light; format: physicochemical; settings: for Count Rate: derived count rate of scattered light (turbidity); for Log10 Count Rate: turbidity, derived count rate of scattered light, data of Figure 2D
[2] = system: HIV-1 infection of TZM-bl cells; assay: HIV-1 infectivity enhancement assay, β-galactosidase luminescence; format: cell-based; settings: for Rel-EFC / Log10 Infection Rel EFC: 1.3 µM peptide; for Rel-EFC: infection relative to EF-C (QCKIKQIINMWQ = 1); for Log10 Infection Rel EFC: log10 of infection relative to EF-C; for Log Infectivity: Log10 infection relative to EF-C, TZM-bl cells, asymmetric std dev errors; for Log10 Infection Rel EF-C: HIV-1 infection of TZM-bl cells; for Abs. Inf.: absolute infection signal, HIV-1 on TZM-bl cells, β-galactosidase luminescence; for Log10 Inf. rel. to EF-C: log10 of HIV-1 infection of TZM-bl cells relative to EF-C (EF-C = 0); for Log10 of Rel to EFC (Feb2021): Log10 of infection relative to EF-C, all peptides of FigS16
[3] = Turbidity, derived count rate of scattered light; format: physicochemical; settings: for Count Rate / kcps: derived count rate of scattered light at 633 nm, 173°, from zeta-potential measurement, 0.1 mg/mL in 1 mM KCl after 1 d at 1 mg/mL in PBS, turbidity / microscopic aggregation, mean of triplicate
How it was run: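 One-day room-temperature aggregation at 1 mg/mL in PBS (pH 7.4) preceded measurement; samples then went into 1 mM KCl. Triplicates per sample, two independent experiments averaged.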

[4] = Zeta-potential measurement; format: physicochemical
How it was run: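 Surface charge of aggregated peptides: 1 mg/mL solutions in PBS (pH 7.4) incubated 1 d at RT, diluted into 1 mM KCl just before reading. Electrophoretic mobility converted to zeta potential by the Smoluchowski formula; triplicate measurements from two separate experiments averaged.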

[5] = Fig. S7 panel A (plotted against β-sheet content)
[6] = Log10 of infection rate relative to EF-C, Figure 3A source data
[7] = infection rate relative to EF-C, log10, data of Figure 2D
[8] = infection rate relative to EF-C, log10, source data of Figure 2C
[9] = Log10 of derived count rate of scattered light (turbidity)
[10] = turbidity, Log10 of derived count rate of scattered light, Figure 3A source data
[11] = turbidity, log10 of derived count rate of scattered light
[12] = zeta-potential of peptide, source data of Figure 2C
[13] = zeta-potential of the peptide assemblies, mean, Figure 3A source data
[14] = Fig. S7 panel B (plotted against CR), rounded to two decimals

Sequence | Count Rate [1] | Log10 Count Rate [1] | Rel-EFC [2] | Log10 Infection Rel EFC [2] | Log Infectivity [2, 5] | Log10 Infection Rel EF-C [2, 6] | Log10 Infection Rel EF-C [2, 7] | Log10 Infection Rel EF-C [2, 8] | Abs. Inf. [2] | Log10 Inf. rel. to EF-C [2] | Log10 Count Rate [3, 9] | Count Rate / kcps [3] | Log10 Count Rate [3, 10] | Log10 Count Rate [3, 11] | Zeta-Pot. [4] | Zeta-Potential / mV [4, 12] | Zeta-Potential / mV [4, 13] | Log10 of Rel to EFC (Feb2021) [2] | Log Infectivity [2, 14] | further results
PPFHPPPFHP | 59.13 | 1.772 | 0,02 | -1,75 | -1.751 | -1.75 | -1.751 | -1.751 | 263.3 | -1.751 | 1.772 | 59 kcps | 1.772 | 1.772 | -15.8 | -9.582 mV | -15.8 mV | – | – | –
QCKAKAQA | 1319.1 | 3.12 | 0,03 | -1,6 | -1.598 | -1.6 | -1.598 | -1.598 | 806.7 | -1.598 | 3.12 | 1319 kcps | 3.12 | 3.12 | 0.674 | 0.4918 mV | 0.67 mV | – | – | –
QCKFKFQF | 2669 | 3.426 | 0,77 | -0,12 | -0.1152 | -0.12 | -0.1152 | -0.1152 | 20303.33333 | -0.1152 | 3.426 | 2669 kcps | 3.426 | 3.426 | 12.2 | 13.3 mV | 12.2 mV | -0.12 | – | –
QCKFKFQFNM | 3669.6 | 3.565 | 0,51 | -0,29 | -0.2906 | -0.29 | -0.2906 | -0.2906 | 16353.33333 | -0.2906 | 3.565 | 3670 kcps | 3.565 | 3.565 | 15.7 | 16.1 mV | 15.7 mV | -0.29 | -0.29 | –
QCKFKFQFNMWQ | 1208 | 3.082 | 0,62 | -0,21 | -0.2086 | -0.21 | -0.2086 | -0.2086 | 19753.33333 | -0.2086 | 3.082 | 1208 kcps | 3.082 | 3.082 | 21.07 | 16.85 mV | 21.07 mV | -0.21 | -0.21 | –
QCKIKIQI | 12426.83333 | 4.094 | 0,11 | -0,95 | -0.9508 | -0.95 | -0.9508 | -0.9508 | 3577 | -0.9508 | 4.094 | 12427 kcps | 4.094 | 4.094 | 9.52 | 10.99 mV | 9.52 mV | -0.95 | – | –
QCKIKIQINMWQ | 8271 | 3.918 | 1,04 | 0,02 | 0.01546 | 0.02 | 0.01546 | 0.01546 | 21221.11111 | 0.01546 | 3.918 | 8271 kcps | 3.918 | 3.918 | 11.73 | 11.38 mV | 11.73 mV | 0.02 | 0.02 | Count Rate ([3]; T0, mean of n = 3): 9558.2 kcps; Count Rate ([3]; T2m, mean of n = 3): 6927 kcps; Log10 Count Rate ([3]; logarithm of count rate in kcps): 3.918
QCKIKQII | 301 | 2.479 | 0,01 | -2,19 | -2.189 | -2.19 | -2.189 | -2.189 | 206.7 | -2.189 | 2.479 | 301 kcps | 2.479 | 2.479 | 11 | 9.183 mV | 11 mV | – | – | –
QCKIKQIINM | 20551.06667 | 4.313 | 0,35 | -0,46 | -0.4555 | -0.46 | -0.4555 | -0.4555 | 11186.66667 | -0.4555 | 4.313 | 20551 kcps | 4.313 | 4.313 | 10.4 | 9.992 mV | 10.4 mV | -0.46 | – | –
